Experimental data: patent US12239714B2, “Phosphatidylserine-binding conjugates” (CANBAS CO., LTD., priority 2021, dated 2025)
“Also recorded” adds a separate entry of the source.

Columns and labels:
[1] = tested on: CT-26 mouse colon cancer cell line; assay: Tumor growth curves of subcutaneously implanted CT-26 in syngeneic BALB/c mice (FIGS. 4A-4D); type: in vivo; conditions: for mouse body weight, compared with the triple drug combination: 100 μg/mouse iv added to Cisplatin+CBP501+anti-CTLA4, data not shown; for CT26 tumor growth, conjugate added to Cisplatin+CBP501+anti-CTLA4 treatment: 100 μg/mouse iv, day 2×2, day 3×1
Protocol: BALB/c mice were implanted subcutaneously with 5×10^5 cells mice colon cancer cell line, CT-26WT, at day −10 when the mice were at the age 6 weeks. Six mice made a group for each treatment when the average tumor size was 205 mm^3 (132-279 mm^3). Treatments were done as follows when the mice were at the age 8 weeks with body weight 19.5 to 24.5 g and tumor size were measured three times in a week.
Dosing schedule (“ip”: intraperitoneal injection; “iv”: intravenous injection): • Diphenhydramine (ip): 10 mg/kg (15 min before Cisplatin/CBP501 on day 1) • Cisplatin (iv): 4 mg/kg (day 1) • CBP501 (iv): 6 mg/kg (day 1) • Anti-CTLA4 antibody (ip) 200 μg/mouse (day2, 4) • TSA005,006 in saline (iv): 100 μg/mouse (day 2×2, day3×1) • TSA015 in HEPES (iv): 100 μg/mouse (day 2×2, day3×1) • Vehicle: saline (iv): 100 μL/mouse (day 2×2, day3×1) Distribution of the Cy5.5 Version of TSA006 (TSA013) in BALB/c Mouse. (FIG. 5)

[2] = tested on: CT26 colon cancer cell line; assay: Syngeneic mice model, TSA005 compared to TSA009 (FIG. 2); type: in vivo, BALB/c mice; conditions: 100 μg i.v. twice on Day 3 and once on Day 4; one cycle
Protocol: (§1) All animal studies were conducted according to protocols approved by institutional animal care committee of CanBas Co., Ltd. Six-week-old female BALB/c mice (The Jackson Laboratories Japan, Inc., Kanagawa, Japan) were inoculated subcutaneously in a flank with a suspension of CT26WT cells (5×10^5 cells). Ten days later, the mice were apportioned into 3 groups (6 mice/group) and treatments were initiated on Day 1.
Cisplatin+CBP501+anti-CTLA-4 antibody: anti-CTLA4 antibody 200 μg intraperitoneal injection (i.p.) on Days 3 and 5. Cisplatin 4 mg/kg and CBP501 6 mg/kg i.v. on Day 2. Saline i.v. twice on Day 3 and once on Day 4.
Cisplatin+CBP501+anti-CTLA-4 antibody+TSA005: anti-CTLA4 antibody 200 μg i.p. on Days 3 and 5. Cisplatin 4 mg/kg and CBP501 6 mg/kg i.v. on Day 2. TSA005 100 μg i.v. twice on Day 3 and once on Day 4.
Cisplatin+CBP501+anti-CTLA-4 antibody+TSA009: anti-CTLA4 antibody 200 μg i.p. on Days 3 and 5. Cisplatin 4 mg/kg and CBP501 6 mg/kg i.v. on Day 2. […] 100 μg i.v. twice on Day 3 and once on Day 4.
Diphenhydramine 10 mg/kg was given i.p. 15 min before CBP501 or 5% Glucose treatment. The size of tumor was measured thrice weekly with a pair of calipers to calculate tumor volume by using the following formula: volume (mm^3)=[(width)2 (mm)×length (mm)]/2.

[3] = tested on: CT26 colon cancer cell line; assay: Syngeneic mice model, TSA005 (FIG. 1): growth of subcutaneous CT26 tumor; type: in vivo, BALB/c mice
Protocol: as §1, with “later” for “later, the”, “5” for “3”, “(6-8” for “(6”, “day1.” for “Day 1.”
The first cycle of the treatments was on day 1 to 5 and the second cycle was on day 10 to 14 as follows.
Cisplatin: Intravenous injection (i.v.) of Cisplatin 4 mg/kg and 5% Glucose on Day 1 and 10. Saline i.v. on Days 2, 3, 11 and 12.
Cisplatin+CBP501: Cisplatin 4 mg/kg and CBP501 6 mg/kg i.v. on Day 1 and 10. Saline i.v. on Days 2, 3, 11 and 12.
Cisplatin+CBP501+anti-CTLA-4 antibody: anti-CTLA4 antibody 200 μg intraperitoneal injection (i.p.) on Days 1 and 5. Cisplatin 4 mg/kg and CBP501 6 mg/kg i.v. on Day 2.
Cisplatin+CBP501+anti-CTLA-4 antibody+TSA005: anti-CTLA4 antibody 200 μg i.p. on Days 1 and 5. Cisplatin 4 mg/kg and CBP501 6 mg/kg i.v. on Day 2. TSA005 100 μg i.v. twice on Day 3 and once on Day 4.
Diphenhydramine 10 mg/kg was given i.p. 15 min before CBP501 or 5% Glucose treatment. The size of tumor was measured thrice weekly with a pair of calipers to calculate tumor volume by using the following formula: volume (mm^3)=[(width)^2 (mm)×length (mm)]/2.
Colon cancer cells from the CT26 cell line were subcutaneously inoculated in BALB/c mice 5×10^5 cells/mouse. The treatment was initiated on day 1, when the tumor sizes of 6-8 mice per test group attained an average size of about 200 mm^3. A cycle of the treatment schedule, dose and the route of treatment are detailed below. […]

Which “mouse body weight, compared with the triple drug combination” value [1] does the source give for “(TLVSSLr)4-K2-K-Cys(MI-CL264)-NH2 [TSA005]” here?
Its value is “did not change the mouse body weight further”.

And the “CT26 tumor growth, conjugate added to Cisplatin+CBP501+anti-CTLA4 treatment” value [1]?
Its value is “further tumor growth suppression; also recorded: further suppressed the tumor growth”.

What about the “CT26 subcutaneous tumor growth, conjugate added to CBP501+cisplatin+anti-CTLA4 antibody” value [2] of the same substance?
The value was “suppressed CT26 subcutanous tumor growth more”.

What about the “tumor growth, TSA005 added to the CBP501+cisplatin combination” value ([3]; TSA005 100 μg i.v. Days 2, 3, 11 and 12, two cycles) of the same substance?
The value was “further suppressed the tumor growth; also recorded: further reduced the growth of the tumor”.

And the “anti-tumor activity of TSA005 in combination with the two-drug or three-drug treatment regimen” value ([3]; TSA005 100 μg i.v., with CBP501+cisplatin or CBP501+cisplatin+anti-CTLA-4 antibody)?
Its value is “enhanced anti-tumor activity; also recorded: reduced tumor growth further than the triple drug combination”.

How did the “mouse body weight, compared with the triple drug combination” value [1] turn out when “(GEGKGGr)4-K2-K-Cys(MI-CL264)-NH2 [TSA006]” was run?
Its value is “did not change the mouse body weight further”.

And the “CT26 tumor growth, conjugate added to Cisplatin+CBP501+anti-CTLA4 treatment” value [1]?
The value was “further tumor growth suppression; also recorded: further suppressed the tumor growth”.

Which “CT26 subcutaneous tumor growth, conjugate added to CBP501+cisplatin+anti-CTLA4 antibody” value [2] does the source give for “(TLVSSLr)8-K4-K2-K-Cys(MI-CL264)-NH2 [TSA009]” here?
The value was “not and deleterious effect”.

“H-(D)p-benzoylphenylalanyl-(D)seryl-(D)tryptophanyl-(D)seryl-(D)pentafluorophenylalanyl-(D)cyclohexylalanyl-(D)arginyl-(D)arginyl- (D)arginyl-(D)glutaminyl-(D)arginyl-(D)arginine acetate salt [CBP501, reference compound]” was tested. Which “subcutaneous tumor growth, CBP501+cisplatin combination versus cisplatin alone” value ([3]; Cisplatin 4 mg/kg and CBP501 6 mg/kg i.v. Day 1 and 10, CT26 in BALB/c mice, acetate salt) did it give?
Its value is “suppressed subcutaneous tumor growth much better than cisplatin alone”.
